Experimental data published in patent US20250250240A1, “PHENAZINE COMPOUND FOR MEASURING BACTERIAL EFFLUX” (priority 2022, published 2025).
“Also recorded” adds a separate entry of the source.

Columns and labels:
BmrA efflux pump [1] = test: Fluorescence measurement (spectrofluorimetry) on BmrA efflux pump mutants; format: cell-based, Bacillus subtilis; conditions: pump-free mutant (BmrAΔ)
Protocol: (§1) Fluorescence measurement: Bacteria in exponential growth phase are incubated for 15 min in the presence of compound 053. The optical density at 600 nm is then adjusted to 0.5 and 50 μL is transferred to a black microtiter plate. Fluorescence is read in a Tecan M200 microplate reader.
(§2) Bacterial strains: The inventors used • the reference strain Bacillus subtilis 168 (DSM 402) producing a basal level of BmrA, • Bacillus subtilis BmrA+++ overproducing the BmrA pump and • Bacillus subtilis BmrA Δ with the BmrA gene deleted. • (see Steinfels E et al. Biochemistry 43:7491-7502 and Krügel Het al. FEMS Microbiol Lett. 2010 December; 313(2): 155-63).
(§3) The protocols used are identical to those used in example 2-1.

BmrA efflux pump [2] = molecular target: T1, BmrA efflux pump (Bacillus subtilis, UniProt O06967); test: as above; format: cell-based
T1 construct: endogenous in cells; host or cells: Bacillus subtilis 168 (DSM 402), BmrA+++ overproducer, BmrA deletion strain
Protocol: as §1, §2, §3

BmrA efflux pump [3] = test: Bacterial staining (pellet colour) test on BmrA efflux pump mutants; format: cell-based, Bacillus subtilis; conditions: BmrAΔ (BmrA deleted); 0.75 μg/mL
Protocol: (§4) Bacterial staining: Bacteria in exponential growth phase are incubated for 15 min in the presence of compound 053. The bacteria are then washed twice in phosphate buffer and centrifuged, with the pellets observed with the naked eye.
(§5) The following protocol was followed: • 1. Grow bacteria on a freshly prepared Muller Hilton-II (MH-II) agar plate. Incubate the Petri dish overnight at 37° C. (Note: Incubation temperature and growth time depend on the bacteria used in the experiment). • 2. The next morning, pick one or two colonies from the overnight plate and inoculate them in an Erlenmeyer flask containing 20 mL MH-II broth. • 3. Incubate the Erlenmeyer on an orbital shaker at 37° C. and 160 rpm for 3-4 hrs. Note: This step allows us to obtain cells in exponential phase, so we need to consider the doubling time of the bacteria used. • 4. After incubation, transfer the cells to a centrifuge tube and centrifuge at 4500 rpm for 10 minutes. Discard supernatant. Add fresh MH-II broth to the centrifuge tube and adjust the optical density of the cells to 0.5. • 5. Transfer an aliquot (5 mL) of cells with adjusted optical density to a new centrifuge tube (50 mL). Add 3.75 μL of compound 053 stock solution (1000 μg/mL) to this tube. Cap the tubes and shake thoroughly to mix the compound. Then keep the centrifuge tube on the table for 15 minutes at room temperature. Note: It is preferable to have a larger surface area to facilitate agitation. The final concentration of 053 used in the experiment is 0.75 μg/mL. […] After 15 minutes contact time, centrifuge the tubes for 10-15 minutes at 4500 rpm to obtain cell pellets and discard supernatant. Using 5 mL of phosphate- or potassium phosphate-buffered saline (PBS, pH7), wash the cell pellets thoroughly (PBS, pH7), repeating this operation twice. Note: Pipette several times with a 5 mL or 1 mL pipette during washing. Make sure there are no lumps during pipetting. The purpose of washing is to remove excess dye from the cell surface. • 7. The color variation in the cells is visible to the naked eye on the cell pellet after the two washes. • a. […]

BmrA efflux pump [4] = molecular target: T1, BmrA efflux pump; test: as above; format: cell-based; conditions: 0.75 μg/mL
Protocol: as §4, §5

NorA efflux pump [5] = test: Fluorescence reading by flow cytometry of treated bacteria; format: cell-based, Staphylococcus aureus
Text: The inventors also carried out a fluorescence reading by flow cytometry in order to validate the results previously obtained by spectrofluorimetry. Advantageously, flow cytometry considers only the fluorescence within the cell and not surrounding it, thus enabling direct assessment of the concentration of compound 053 within the cell without the need for rinsing.
(§6) The results are consistent with those obtained previously. […] The inventors also tested the impact that a fixing agent such as 1% w/v paraformaldehyde (PFA) or 70% cold ethanol might have on cells treated with compound 053.

PatA-PatB transporter = test: Bacterial staining (pellet colour) test on PatA-PatB transporter mutants; format: cell-based, Streptococcus pneumoniae; conditions: 1 μg/mL
Protocol: as §4
as §5, with “agitation.” for “agitation. The final concentration of 053 used in the experiment is 0.75 μg/mL.”

NorA efflux pump [6] = test: Bacterial staining (pellet colour) test for NorA efflux pump activity; format: cell-based, Staphylococcus aureus; conditions: 0.75 μg/mL, 15 min
Protocol: (§7) Bacterial strains: The inventors used the following strains of Staphylococcus aureus: • CIP 76.25, a reference strain producing a basal level of NorA, • SA1199, a reference strain producing a basal level of NorA, • SA 1199B, an overproducer of the NorA pump, and • SA K1758 with the NorA gene deleted, (Kaatz et al., 2003, Antimicrob Agents Chemother. 2003 February; 47(2): 719-26).
as §4
as §5, with “supernatant.” for “supernatant. Using 5 mL of phosphate- or potassium phosphate-buffered saline (PBS, pH7), wash the cell pellets thoroughly (PBS, pH7), repeating this operation twice. Note: Pipette several times with a 5 mL or 1 mL pipette during washing. Make sure there are no lumps during pipetting. The purpose of washing is to remove excess dye from the cell surface. • 7. The color variation in the cells is visible to the naked eye on the cell pellet after the two washes. • a.”

AcrAB efflux pump [7] = molecular target: T2, AcrAB efflux pump (Escherichia coli, UniProt P31224); test: Pellet colour test for AcrAB efflux pump activity in strains pretreated with CCCP; format: cell-based; conditions: 1 μg/mL; cells pretreated 1 hr with CCCP 5 μg/mL; EC, AG100, AG100A versus AG102
T2 construct: strain AG100 is the wild-type strain of E. coli (Wild) also showing normal efflux; endogenous in cells; host or cells: Escherichia coli ATCC11775, AG100 (wild type), AG102 (AcrAB overexpressing), AG100A (acrAB deleted)
Protocol: The inventors also tested compound 053 (1 μg/mL) on the same Escherichia coli strains with varying levels of AcrAB efflux pump expression. The protocol was slightly modified to introduce a pre-treatment step with Carbonyl Cyanide m-Chlorophenylhydrazone (CCCP). CCCP is a chemical inhibitor of oxidative phosphorylation. It interferes with the transmembrane electrochemical gradient and proton-motive force, and consequently reduces ATP production. The effect of CCCP is to reduce the efficiency of efflux pumps, making it easier to perceive differences in staining between different strains.
The experimental protocol is the same as that described in the examples, with the difference that cells are treated for 1 hr with CCCP (5 μg/mL) in phosphate buffer (PPB). After CCP treatment, the whole experiment is run in PPB instead of MH-II broth from step 4 onwards.

NorA efflux pump [8] = test: Relative fluorescence intensity of treated strains fixed with PFA or ethanol; format: cell-based, Staphylococcus aureus; conditions: fixing agent 1% w/v PFA or 70% cold ethanol; CIP 76.25, SA, SA1199B, SA K1758
Text: as §6

NorA efflux pump [9] = test: Fluorescence measurement (spectrofluorimetry, excitation 530 nm) of treated bacteria; format: cell-based, Staphylococcus aureus
Protocol: as §7, §1

AcrAB efflux pump [10] = test: Bacterial staining (pellet colour) test for AcrAB efflux pump activity; format: cell-based, Escherichia coli; conditions: 1 μg/mL, 15 min
Protocol: The experimental protocol is the same as that described in the previous examples, except for the bacterial strains used. Briefly, compounds 29 and 392 (1 μg/mL) were added to 5 mL of a cell suspension of different E. coli strains (OD=1.5), mixed by tilting and left to stand on the table at room temperature for 15 min. The cells were then centrifuged at 3500 rpm for 10 min and rinsed with potassium phosphate buffer (PBP). The cell pellet was washed only once.

[11] = strain SA 1199B (NorA overproducer)
[12] = strain AG100 (wild-type), normal efflux
[13] = strain AG102 (AcrAB overexpression)
[14] = strain EC (ATCC11775), normal efflux

T1 sequence (O06967 whole entry): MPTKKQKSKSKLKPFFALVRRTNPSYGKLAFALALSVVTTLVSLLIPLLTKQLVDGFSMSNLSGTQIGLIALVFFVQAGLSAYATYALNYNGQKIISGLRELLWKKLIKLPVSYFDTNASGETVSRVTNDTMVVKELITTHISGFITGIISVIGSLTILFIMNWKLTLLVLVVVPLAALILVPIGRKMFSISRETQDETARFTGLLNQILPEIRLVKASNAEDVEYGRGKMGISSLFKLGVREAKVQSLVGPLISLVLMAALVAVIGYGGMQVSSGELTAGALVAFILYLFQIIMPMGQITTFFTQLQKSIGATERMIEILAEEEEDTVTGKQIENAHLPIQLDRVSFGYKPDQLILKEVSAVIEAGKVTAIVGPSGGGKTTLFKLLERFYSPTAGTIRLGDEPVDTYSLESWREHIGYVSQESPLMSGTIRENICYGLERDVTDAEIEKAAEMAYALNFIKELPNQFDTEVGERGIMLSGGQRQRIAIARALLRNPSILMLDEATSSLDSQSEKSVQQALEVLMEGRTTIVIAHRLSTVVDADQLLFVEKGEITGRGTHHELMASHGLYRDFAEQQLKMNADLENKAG
T2 sequence (P0AE06 25-397): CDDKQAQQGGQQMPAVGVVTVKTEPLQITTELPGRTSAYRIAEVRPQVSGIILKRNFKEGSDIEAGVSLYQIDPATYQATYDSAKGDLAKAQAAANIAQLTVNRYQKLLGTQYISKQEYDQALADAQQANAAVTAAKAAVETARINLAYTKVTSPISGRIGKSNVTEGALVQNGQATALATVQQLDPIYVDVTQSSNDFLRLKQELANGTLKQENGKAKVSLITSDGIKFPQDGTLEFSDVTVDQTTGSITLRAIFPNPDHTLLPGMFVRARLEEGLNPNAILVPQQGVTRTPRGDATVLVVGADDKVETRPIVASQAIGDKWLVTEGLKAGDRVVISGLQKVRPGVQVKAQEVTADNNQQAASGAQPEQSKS
T2 sequence (P02930 23-493, further chain): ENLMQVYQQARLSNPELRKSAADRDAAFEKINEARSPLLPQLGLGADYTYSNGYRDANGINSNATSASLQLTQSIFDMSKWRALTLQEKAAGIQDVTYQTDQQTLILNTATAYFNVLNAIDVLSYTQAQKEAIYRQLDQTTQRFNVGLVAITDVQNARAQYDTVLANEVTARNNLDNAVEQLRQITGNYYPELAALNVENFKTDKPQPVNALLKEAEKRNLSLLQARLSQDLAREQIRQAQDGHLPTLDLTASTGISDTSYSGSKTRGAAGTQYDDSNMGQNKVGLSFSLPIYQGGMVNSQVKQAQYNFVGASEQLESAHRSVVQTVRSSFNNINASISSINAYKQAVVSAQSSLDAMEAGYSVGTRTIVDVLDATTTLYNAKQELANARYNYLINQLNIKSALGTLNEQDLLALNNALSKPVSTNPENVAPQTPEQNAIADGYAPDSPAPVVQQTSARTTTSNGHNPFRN
T2 sequence (P31224 whole entry): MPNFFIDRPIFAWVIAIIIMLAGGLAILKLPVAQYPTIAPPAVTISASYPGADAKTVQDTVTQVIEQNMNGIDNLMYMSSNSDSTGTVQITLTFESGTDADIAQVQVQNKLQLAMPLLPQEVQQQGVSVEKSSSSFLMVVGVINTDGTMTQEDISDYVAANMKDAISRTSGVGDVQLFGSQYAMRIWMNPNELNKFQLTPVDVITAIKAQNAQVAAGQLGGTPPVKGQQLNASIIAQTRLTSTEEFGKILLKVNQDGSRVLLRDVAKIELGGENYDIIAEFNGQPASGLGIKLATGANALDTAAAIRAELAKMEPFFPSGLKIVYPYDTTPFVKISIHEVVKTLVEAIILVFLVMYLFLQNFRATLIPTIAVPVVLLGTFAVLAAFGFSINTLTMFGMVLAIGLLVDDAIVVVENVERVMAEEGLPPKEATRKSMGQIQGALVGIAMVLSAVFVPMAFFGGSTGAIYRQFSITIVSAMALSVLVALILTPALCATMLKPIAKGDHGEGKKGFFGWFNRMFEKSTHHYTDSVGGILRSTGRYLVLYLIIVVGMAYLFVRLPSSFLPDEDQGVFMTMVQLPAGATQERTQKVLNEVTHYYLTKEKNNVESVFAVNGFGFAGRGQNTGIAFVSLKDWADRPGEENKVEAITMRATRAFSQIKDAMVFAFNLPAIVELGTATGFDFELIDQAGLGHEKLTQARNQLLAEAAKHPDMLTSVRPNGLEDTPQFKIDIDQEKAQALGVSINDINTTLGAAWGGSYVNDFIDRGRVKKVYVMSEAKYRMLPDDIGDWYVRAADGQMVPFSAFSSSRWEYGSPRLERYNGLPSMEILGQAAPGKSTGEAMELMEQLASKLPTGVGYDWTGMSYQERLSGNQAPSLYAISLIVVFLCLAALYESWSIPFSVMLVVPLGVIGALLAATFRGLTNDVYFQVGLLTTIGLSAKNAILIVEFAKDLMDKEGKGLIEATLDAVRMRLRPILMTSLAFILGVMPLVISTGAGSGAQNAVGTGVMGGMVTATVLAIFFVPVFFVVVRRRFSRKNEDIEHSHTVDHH

In the case of `CCCCNc1ccc2nc3cc(NCCOC)c(N)cc3[n+](CCC)c2c1` [compound 053], the “fluorescence of treated bacteria” value (BmrA efflux pump [1]) is reported as “very high”, the “fluorescence of treated bacteria” value (BmrA efflux pump [2]; overproducing strain (BmrA+++)) is reported as “almost nil” and the “fluorescence of treated bacteria” value (BmrA efflux pump [2]; wild-type strain (DSM 402)) is reported as “intermediate levels of fluorescence”. For the same compound, the “colour of bacterial pellet” value (BmrA efflux pump [3]) was “dark pink”, the “colour of bacterial pellet” value (BmrA efflux pump [4]; BmrA+++ (overexpressing BmrA)) was “white; also recorded: No coloration” and the “colour of bacterial pellet” value (BmrA efflux pump [4]; wild-type B. subtilis 168 (DSM 402)) was “Intermediate pale pink”. For the same compound, the “accumulation in cells (fluorescence intensity by flow cytometry)” value (“accumulation in cells” below) (NorA efflux pump [5]; NorA-overexpressing strain SA1199B) was “accumulated very little”, the “accumulation in cells” value (NorA efflux pump [5]; norA-deleted strain SA K1758) was “accumulated heavily” and the “accumulation in cells” value (NorA efflux pump [5]; reference strain SA) was “accumulated moderately”. For the same compound, the “accumulation in cells” value (NorA efflux pump [5]; wild-type strain CIP 76.25) was “accumulated moderately”, the “colour of bacterial pellet” value (PatA-PatB transporter; DEL strain (PatA-PatB deleted)) was “dark pink” and the “colour of bacterial pellet” value (PatA-PatB transporter; OVP strain (overexpressing PatA-PatB)) was “white”. For the same compound, the “colour of bacterial pellet” value (PatA-PatB transporter; WT strain (basal PatA-PatB)) was “dark pink”, the “colour of bacterial pellet” value (NorA efflux pump [6]; strain CIP 76.25 (reference, basal NorA)) was “Intermediate colors; also recorded: intermediate pale pink” and the “colour of bacterial pellet” value (NorA efflux pump [6]; [11]) was “No coloration; also recorded: white/off-white”. For the same compound, the “colour of bacterial pellet” value (NorA efflux pump [6]; strain SA K1758 (NorA deleted)) was “bright dark pink”, the “visual distinction of strains by pellet staining” value (AcrAB efflux pump [7]) was “visually possible to distinguish” and the “efflux differential between strains after fixation” value (NorA efflux pump [8]) was “efflux differential between the different strains remains visible”. The “fluorescence of treated bacteria” value (NorA efflux pump [9]; strain CIP 76.25 (low NorA level)) was “intermediate levels of fluorescence”, the “fluorescence of treated bacteria” value (NorA efflux pump [9]; strain SA 1199 (low NorA level)) was “intermediate levels of fluorescence” and the “fluorescence of treated bacteria” value (NorA efflux pump [9]; [11]) was “almost nil”. For the same compound, the “fluorescence of treated bacteria” value (NorA efflux pump [9]; strain SA K1758 (NorA pump-free mutant)) was “high fluorescence”.
With `CCCCNc1ccc2nc3cc(NCCC)c(N)cc3[n+](CCCC)c2c1` [compound 29] the “staining of bacteria (pellet colour)” value (AcrAB efflux pump [10]; [12]) was “very pale pink”, the “staining of bacteria (pellet colour)” value (AcrAB efflux pump [10]; strain AG100A (acrAB deleted)) was “dark pink stain” and the “staining of bacteria (pellet colour)” value (AcrAB efflux pump [10]; [13]) was “unstained”. For the same compound, the “staining of bacteria (pellet colour)” value (AcrAB efflux pump [10]; [14]) was “very pale pink”.
In the case of `CCCCCCCC[n+]1c2cc(NCCCC)ccc2nc2cc(NCCOC)c(N)cc21` [compound 392], the “staining of bacteria (pellet colour)” value (AcrAB efflux pump [10]; [12]) is reported as “very pale pink”, the “staining of bacteria (pellet colour)” value (AcrAB efflux pump [10]; strain AG100A (acrAB deleted)) is reported as “dark pink stain” and the “staining of bacteria (pellet colour)” value (AcrAB efflux pump [10]; [13]) is reported as “unstained”. For the same compound, the “staining of bacteria (pellet colour)” value (AcrAB efflux pump [10]; [14]) was “very pale pink”.
